Here are results for 1 compound from PMC12567082, “Silver(I) Complexes Bearing S-Alkyl Thiosalicylic Acid Derivatives: DNA/BSA Binding and Antitumor Activity In Vitro and In Vivo” (Pharmaceutics, 2025).

The subject of one data set is mouse lung cancer (LLC1). The data set is described as follows: MTT assay LLC1. The data set is classed as cell-based. On the procedure:
(§1) Mouse breast cancer (4T1), human breast cancer (MDA-MB-468), mouse colon cancer (CT26), human colon cancer (HCT-116), mouse lung cancer (LLC1), human lung cancer (A549), mouse mesenchymal stem cells (mMSC), and human fibroblast cell lines (MRC-5) were used in this study and were consistently cultured in complete Dulbecco’s Modified Eagle Medium (DMEM) (Sigma-Aldrich, St. Louis, MO, USA) in incubator (5% CO2) under standard conditions. Complete DMEM was Dulbecco’s Modified Eagle Medium supplemented with 10% fetal bovine serum (FBS), 1 mmol/L penicillin–streptomycin, 1 mmol/L mixed nonessential amino acids, and 2 mmol/L L-glutamine (Sigma-Aldrich, St. Louis, MO, USA). All cancer cell lines and MRC-5 cell line were obtained from American Type Culture Collection (ATCC, Manassas, VA, USA), but mMSC was manufactured by Gibco (Middlesex County, MA, USA).
(§2) In 96-well microplates, we seeded cancer and non-cancer cells, more exactly 5 × 10^3 cells per well in 100 μL of complete DMEM (Sigma-Aldrich, St. Louis, MO, USA). […] Tested concentration range for all metal-based substances was 3.9–500 μM. After incubation with MTT solution (5 mg/mL; pH 7.2) for 4 h, optical density was determined using Zenyth 3100 microplate multimode detector (Salzburg, Austria). All experiments were performed three times, each in triplicate, and the IC50 values as well as selectivity indexes (IC50 for mMSC or MRC-5/IC50 for mouse or human cancer cells) were calculated.

Data set [1] has as its system human breast cancer (MDA-MB-468). The data set can be described thus: MTT assay MDA-MB-468. Format: cell-based. On the procedure:
as §1, §2

For the next data set, the system named is BALB/C female mice. The data set is described as follows: In vivo toxicity (serum biochemistry, liver and kidney histology). As to conditions: day 30. Here is the method:
(§3) Ethics Committee of the Faculty of Medical Sciences of the University of Kragujevac, Serbia, approved all experiments (01-5301/11). ARRIVE guidelines and EU Directive 2010/63/EU for animal experiments were followed. Experimental animals, BALB/C female mice (8–10 weeks old), were housed under standard conditions (temperature-controlled environment, a 12 h light–dark cycle, fed ad libitum, and observed daily) throughout whole duration of experiment. Animals were inoculated with 4T1 cells (3 × 10^4) into the fourth mammary fat pad as previously described. Animals were randomly assigned to experimental or control groups, and after palpable tumors were detected, the pharmacological treatments were started. Female BALB/C mice intraperitoneally received either C3 (3 mg/kg), C3 (6 mg/kg), CDDP (6 mg/kg), or vehicle in distilled water with 0.05% DMSO (Sigma-Aldrich, St. Louis, MO, USA) (untreated group) in five single doses every third day (8 animals per group). Using electronic calipers (Moore and Wright, Sheffield, UK), the sizes of primary 4T1 mammary tumors were morphometrically evaluated. On the 30th day of experiment, animals were sacrificed, blood was collected (for determination of serum levels of ALT, AST, urea, and creatinine), and tissue sections (liver and kidney) were stained with H&E for further analysis. Liver or kidney sections were analyzed by two observers, and the injury levels were determined as previously reported.

Data set [2] has as its system 4T1 cells. The data set is described as follows: Mitochondrial membrane potential and ROS levels. The data set is classed as cell-based, mouse. Particulars: 0.5 µM. On the procedure: After 24 h of C3 treatment, 4T1 cells were stained with appropriate dyes, followed by flow cytometry analysis using FACS Calibur Flow Cytometer (BD Biosciences, San Jose, CA, USA). Mitochondrial membrane potential stained by Rhodamine-123 (Sigma-Aldrich, St. Louis, MO, USA), TMRE (Abcam, Cambridge, UK), and cellular ROS levels were stained by DC-FHDA (Sigma-Aldrich, St. Louis, MO, USA).

A further data set has as its system human lung cancer (A549). The data set can be described thus: MTT assay A549. Format: cell-based. On the procedure: as §1, §2
(Tetrazolium assays rely on reduction of a dye to a coloured formazan, in cell work by metabolically active cells.)

Data set [3] deals with 4T1 cells. The data set is described as follows: Flow cytometry of apoptosis and proliferation markers. The data set is classed as cell-based, mouse. As to conditions: 0.5 µM, 24 h, vs untreated. Here is the method: Flow cytometry was performed on 4T1 cells treated with 0.5 µM of C3 for 24 h or untreated cells. After treatment, cells were incubated with antibodies specific for Bax (Abcam Cambridge, Cambridge, UK), Bcl-2 (Abcam Cambridge, UK), BclXL (Thermo Fisher Scientific, Waltham, MA, USA), MCL-1 (Thermo Fisher Scientific, Waltham, MA, USA) caspase 3 (Abcam Cambridge, UK), Ki-67 (eBioscience, San Diego, CA, USA), cyclin D3 (Abcam Cambridge, UK), p21 (Abcam Cambridge, UK), p16 (Abcam Cambridge, UK), and p27 (Abcam Cambridge, UK) and secondary antibodies as previously described. FACSCalibur Flow Cytometer (BD Biosciences, San Jose, CA, USA) was used for flow cytometry, and the data were analyzed using FlowJo (version 10.7.2; Tree Star Inc. Ashland, OR, USA).
A general note: Flow cytometry measures light scatter and fluorescence of single cells or particles in a stream.

The subject of data set [4] is mouse mesenchymal stem cells (mMSC). The data set can be described thus: MTT assay mMSC. Format: cell-based. Particulars: 48 h. On the procedure: as §1, §2
The next data set concerns 4T1 mammary tumors. The data set is described as follows: Breast cancer development in vivo (orthotopic 4T1). Also on record: species or system BALB/C female mice. Particulars: five single doses every third day, after day 18. On the procedure: as §3
Data set [5] concerns 4T1 cells. The data set can be described thus: Cell cycle distribution. Format: cell-based, mouse. Particulars: 0.5 µM, 24 h. On the procedure: After reaching optimal confluency, 4T1 cells were allowed to grow in the presence of 0.5 µM of C3 or DMEM only (control 4T1 cells) for next 24 h. According to manufacturer’s recommendation, cells were stained with Vybrant® DyeCycle^TM Ruby stain (Thermo Fisher Scientific, Waltham, MA, USA) in order to perform cell cycle analysis. The analysis was carried out on FACSCalibur Flow Cytometer (BD Biosciences, San Jose, CA, USA), and data were analyzed using FlowJo software (version 10.7.2; Tree Star Inc. Ashland, OR, USA).

The test system of data set [6] is 4T1 cells. The data set can be described thus: Scratch assay. The data set is classed as cell-based, mouse. As to conditions: 0.5 µM, after 12 and 24 h, vs untreated. Here is the method: In order to determine migratory capacity of C3-treated 4T1 cells, scratch assay was performed as previously described. Once 4T1 cells formed a confluent monolayer, an injury was made, and first representative images were taken immediately. Further 4T1 cells were exposed to C3 (0.5 µM) or DMEM only (untreated cells), and observation under inverted optical microscope (Olympus, Tokyo, Japan) was made after 4 h, 12 h, and 24 h. Scratch width was quantified by ImageJ (version 1.54.0 NIH, Madison, WI, USA).

As to `CCCSc1ccccc1C(=O)[O][Ag].CCCSc1ccccc1C(=O)[O][Ag]` [C3, [Ag2(S-propyl-thiosal)2]], the IC50 (in general, the concentration at which inhibition is half-maximal) in the data set with mouse lung cancer (LLC1) (LLC1, 24 h) amounted to 41.6 ± 1.27 µM; in the data set with mouse lung cancer (LLC1) (LLC1, 48 h), 20.3 ± 1.18 µM; in data set [1] (MDA-MB-468, 24 h) it was 15.5 ± 1.21 µM; in data set [1] (MDA-MB-468, 48 h) it was 8.76 ± 1.24 µM; in the data set with human lung cancer (A549) (A549, 24 h), 55.8 ± 1.83 µM; with human lung cancer (A549) (A549, 48 h), 66.3 ± 1.18 µM. In data set [4], the IC50 amounted to 4.22 ± 0.33 µM. In addition, the “Selectivity Index (IC50 mMSC or MRC-5/ IC50 Cancer Cell)” value was 0.21 with mouse lung cancer (LLC1) (LLC1, 48 h); 2.46 in data set [1] (MDA-MB-468, 24 h); 4.95 in [1] (MDA-MB-468, 48 h); 0.68 with human lung cancer (A549) (A549, 24 h); 0.65 with human lung cancer (A549) (A549, 48 h). The “kidney injury scores compared to CDDP-treated animals” value with BALB/C female mice (C3 3 and 6 mg/kg vs CDDP 6 mg/kg) was “significantly lower”. Also, in the data set with BALB/C female mice (C3 3 and 6 mg/kg, H&E), the “liver injury histological score (Knodel score) vs untreated animals” value is “did not reveal a significant difference”. Besides, the “TMRE fluorescence (mitochondrial membrane potential)” value in the data set on 4T1 cells [2] is listed as “significant decrease”. Further, the “level of intracellular ROS” value in the data set with 4T1 cells [2] (24 h incubation) is recorded as “increased”. For the same compound, the Bax/Bcl-2 ratio result in the data set on 4T1 cells [3] is on record as “higher”. Further, the “tumor growth compared to the untreated group” value in the data set on 4T1 mammary tumors (3 mg/kg i.p.) and in the data set on 4T1 mammary tumors (6 mg/kg i.p.) was “significantly slower” in each case. The “percentage of 4T1 cells in G0/G1 phase” value with 4T1 cells [5] is “significantly increased”. Further, the “percentage of 4T1 cells in S phase” value in the data set with 4T1 cells [5] was “decreased”. The “migration ability of 4T1 cells” value in the data set on 4T1 cells [6] is recorded as “significantly reduced”.
